US4351948A, “Imidazole hydrazone derivatives” (priority 1980, dated 1982)
Counter-ions that a name gives are not always drawn. Like-named read-outs stand apart in the source and are kept apart here.

Columns and labels:
platelet aggregation = assay: Platelet aggregation after oral administration in the retired male breeder rat model; type: in vivo; conditions: read-out: ED50 (3 hr. post oral administration)
Description: HC 501 has also been evaluated for platelet aggregation 3 hrs. after oral administration in the retired male breeder rat model (R. N. Saunders et al, Lab. Anim. Sci., 1977, 27, 757).

pseudomonas aeruginosa = assay: Anti-bacterial activity, zone diameter; type: cell-based; conditions: for zone of inhibition at 50 µg/disc: read-out: Zone diameter given by 50 μg of drug
Description: (§1) The anti-bacterial activity of the compound HC274 according to the present invention was also compared with the activity of known anti-bacterial agents with the following results: […]

Nocardia asteroides = assay: Anti-bacterial activity, zone diameter; type: cell-based; conditions: for zone of inhibition at 50 µg/disc: read-out: Zone diameter given by 50 μg of drug
Description: as §1

Streptococcus pyrogenes = assay: Anti-bacterial activity, zone diameter; type: cell-based; conditions: for zone of inhibition at 50 µg/disc: read-out: Zone diameter given by 50 μg of drug
Description: as §1

Proteus vulgaris = assay: Anti-bacterial activity, zone diameter; type: cell-based; conditions: for zone of inhibition at 50 µg/disc: read-out: Zone diameter given by 50 μg of drug
Description: as §1

Staphylococcus aureus = assay: Anti-bacterial activity, zone diameter; type: cell-based; conditions: for zone of inhibition at 50 µg/disc: read-out: Zone diameter given by 50 μg of drug
Description: as §1

Klebsiella pneumoniac = assay: Anti-bacterial activity, zone diameter; type: cell-based; conditions: for zone of inhibition at 50 µg/disc: read-out: Zone diameter given by 50 μg of drug
Description: as §1

Escherichia coli = assay: Anti-bacterial activity, zone diameter; type: cell-based; conditions: for zone of inhibition at 50 µg/disc: read-out: Zone diameter given by 50 μg of drug
Description: as §1

Nocardia brasiliensis = assay: Anti-bacterial activity, zone diameter; type: cell-based; conditions: for zone of inhibition at 50 µg/disc: read-out: Zone diameter given by 50 μg of drug
Description: as §1

C. albicans [1] = assay: Recovery of viable candida cells from the kidneys of infected mice (p.o. and i.v. treatment); type: in vivo; conditions: 25 mg/kg 1 h and 24 h after infection
Experimental: Mice receive 25×10^4 cells of C. albicans i.v. Treatments (25 mg/kg) administered in PEG/Dextrose 1 h and 24 h after infection. Animals sacrified 48 h after infection and kidneys excised, weighed, homogenized and decimal dilutions spread on glucose-peptone agar.

candida = assay: Intravenous administration: recovery of viable candida cells from the kidneys of infected mice; type: in vivo; conditions: 25 mg/ml
candida albicans = assay: Oral treatment: recovery of viable candida albicans from the kidneys of infected mice; type: in vivo
Description: Effect of oral treatment with HC274, HC316, HC390, HC415 and Ketoconazole on the recovery of viable candida albicans from the kidneys of infected mice.

[2] = system: Trichophyton mentagrophytes; assay: Experimental Trichophyton mentagrophytes infection in guinea pigs; type: in vivo
Description: Effect of oral or topical administration of HC274, HC344, Clotrimazole, and Ketoconazole on experimental Trichophyton mentagrophytes infection in guinea pigs.
*Based on degree of hair loss, erythema, desquamation, Max. = 100
Treatments administered in Carbopol® gel, once daily days 5-10.

C. albicans [3] = assay: Vaginal candida infection in rats, oral or topical treatment; type: in vivo
Description: Effect of oral or topical administration of HC274 and ketoconazole on vaginal candida infection in rats. Clearance of C. albicans from rat vagina following oral or topical treatment (as percentage of control).
Topical treatment: 1% solution in polyethylene glycol administrated twice daily for 3 days.
Oral treatment: Once daily for 3 days.

[4] = system: platelet thromboxane generation; assay: Inhibition of platelet thromboxane generation (TxB2, collagen-stimulated human platelet rich plasma); type: cell-based; conditions: 10 min, collagen 8 μg/ml, human PRP, 10 min. incubation, 37° C., read-out: Activity IC50 (50% inhibition of TxB2 generation)
Experimental: The compounds used according to the invention as anti-thrombotics were tested by the following method for their ability to inhibit platelet thromboxane generation.
Human venous blood was collected from healthy male donors, who had denied any medication in the previous 14 days. Nine volumes of blood were mixed with one volume of 3.24% trisodium citrate. The citrated blood was centrifuged at 160 g for 10 mins. at 22° C. to obtain platelet rich plasma (PRP). The platelets were then counted on a Coulter counter, and the platelet count was adjusted to 200,000 per μl with plasma.
The PRP was then dispensed as aliquots into micro-Eppendorf tubes, maintained at 37° C. in a dry bath. The compounds dissolved either in saline, ethanol, or DMSO were added in duplicate to the PRP aliquots to produce final concentrations of 0.3, 3 and 30 μg/ml. When ethanol and DMSO were used as the vehicle, triplicate controls containing the same percentage of vehicle as the test compounds were made. The final concentration or organic solvent was never more than 0.1%, which in previous experiments had no effect on TxB2 generation.
Following a 10 min. incubation with test compounds or vehicle, collagen was added to produce a final concentration of 8 μg/ml. The tubes were then whirly-mixed for 15 seconds and replaced in the dry bath for a further 10 minutes, controls received saline instead of collagen. The reaction was then stopped by rapid centrifugation, 15,000 g for 3 mins. The plasma was removed and frozen at -29° C. until assayed.
Briefly, 100 μl aliquots, in tricine buffered saline+0.8% gelatin (pH 8.0) of the following were incubated together for 1 hour at 37° C.: thromboxane Tx B2 (plasma extract, spiked plasma extract or standards 20 to 20,000 pg/ml), ^3 H--TxB2 (approximately 15,000 dpm) and anti-TxB2 antiserum (0.5 μg/100 μl). The free and protein bound ^3 H--TxB2 were separated by ammonium sulphate precipitation followed by centrifugation. 300 μl of the supernatant was added to an aqueous scintillation fluid, and the radioactivity present was counted in a liquid scintillation counter. The binding of ^3 H--TxB2 in the absence of added TxB2 was approximately 55%. The least amount of TxB2 to be detected accurately in the plasma was 0.08 ng/ml. Cross reactivity with other prostaglandins is less than 0.005% except PGD2 which is 1%.
Thus plasma samples were assayed to give a rough approximation of TxB2 content. The plasma was then appropriately diluted and assayed in duplicate to give accurate values.
The amount of TxB2 generated by the collagen was calculated by subtracting mean values obtained for the saline stimulated platelets from the mean values obtained from the collagen stimulated platelets. Then the amount of TxB2 generated in the presence of each concentration of compound was expressed as a % control and dose response curves were then constructed to determine the concentration of compound which produced a 50% inhibition.

[5] = topical, 1% w/w in Carbopol gel once daily days 5-10, day 10 after infection
[6] = topical, 1% w/w in Carbopol gel, day 5 after infection
[7] = topical, 1% solution in polyethylene glycol twice daily for 3 days
[8] = oral, 3 hr, retired male breeder rat

## CC(=O)Oc1ccccc1C(=O)O [Aspirin, 2(Acetyloxy)benzoic acid]
Platelet aggregation; Rattus norvegicus, po, 3 h
  ED50: 7.7 mg/kg

## CC1(C)S[C@@H]2[C@H](NC(=O)[C@H](N)c3ccccc3)C(=O)N2[C@H]1C(=O)O [AMP, Ampicillin]
Pseudomonas aeruginosa; 50 μg, pseudomonas aeruginosa
  zone of inhibition at 50 µg/disc: 0 mm
Nocardia asteroides; 50 μg
  zone of inhibition at 50 µg/disc: 38 mm
Streptococcus pyrogenes; 50 μg, Streptococcus pyrogenes
  zone of inhibition at 50 µg/disc: 25 mm
Proteus vulgaris; 50 μg
  zone of inhibition at 50 µg/disc: 28 mm
Staphylococcus aureus; 50 μg
  zone of inhibition at 50 µg/disc: 21 mm
Klebsiella pneumoniac; 50 μg, Klebsiella pneumoniac
  zone of inhibition at 50 µg/disc: 11 mm
Escherichia coli; 50 μg
  zone of inhibition at 50 µg/disc: 17 mm
Nocardia brasiliensis; 50 μg
  zone of inhibition at 50 µg/disc: 38 mm

## Clc1ccc(C(Cn2ccnc2)OCc2ccsc2Cl)c(Cl)c1 (stereo not drawn) [Tioconazole, 1-[2-[(2-Chloro-3-thienyl)methoxy]-2-(2,4-dichlorophenyl)ethyl]-1H-imidazole]
In vivo; mouse, in vivo, po
  LD12.5: > 500 mg/kg
C. albicans [1]; i.v.
  No. of CFU/g kidney at 48 h: 1.2 × 10^3 CFU/g kidney
C. albicans [1]; p.o.
  No. of CFU/g kidney at 48 h: 2.2 × 10^3 CFU/g kidney
candida
  CFU/g kidney: 8.1 × 10^3 CFU/g kidney
  CFU/g kidney, % of control: 55 % of control

## Cl.Fc1c(F)c(F)c(N/N=C(\Cn2ccnc2)c2ccc(Cl)cc2)c(F)c1F [HC415, (Z)-1-(4-chlorophenyl)-2-(1H-imidazol-1-yl)ethanone, 2,3,4,5,6-pentafluorophenylhydrazone hydrochloride]
Candida albicans; 5 mg/kg
  Recovery of C.albicans (as percentage of control): 14.0 percentage of control
Candida albicans; 20 mg/kg
  Recovery of C.albicans (as percentage of control): 17.2 percentage of control

## Polymyxin [PM]
Pseudomonas aeruginosa; 50 μg, pseudomonas aeruginosa
  Zone diameter given by 50 μg of drug: 10 MM
Nocardia asteroides; 50 μg
  Zone diameter given by 50 μg of drug: 11 MM
Streptococcus pyrogenes; 50 μg, Streptococcus pyrogenes
  Zone diameter given by 50 μg of drug: 0 MM
Proteus vulgaris; 50 μg
  Zone diameter given by 50 μg of drug: 12 MM
Staphylococcus aureus; 50 μg
  Zone diameter given by 50 μg of drug: 7 MM
Klebsiella pneumoniac; 50 μg, Klebsiella pneumoniac
  Zone diameter given by 50 μg of drug: 10 MM
Escherichia coli; 50 μg
  Zone diameter given by 50 μg of drug: 10 MM
Nocardia brasiliensis; 50 μg
  Zone diameter given by 50 μg of drug: 0 MM

## Clc1ccccc1C(c1ccccc1)(c1ccccc1)n1ccnc1 [Clotrimazole, 1-(2-Chlorophenyl)diphenylmethyl-1H-imidazole, reference compound]
In vivo; mouse, in vivo, iv
  LD50 at 168 h: 10 mg/kg
In vivo; p.o., male mice, 7 day
  LD12.5: 500 mg/kg
[2]; [5]
  Disease rating (degree of hair loss, erythema, desquamation, Max. = 100): 51.9
[2]; [6]
  Disease rating (degree of hair loss, erythema, desquamation, Max. = 100): 100
C. albicans [3]; [7]
  Clearance of C. albicans from rat vagina (as percentage of control): 100 percentage of control

## Clc1ccc(COC(Cn2ccnc2)c2ccc(Cl)cc2Cl)c(Cl)c1 (stereo not drawn) [Miconazole, 1-[2-(2,4-Dichlorophenyl)-2-[(2,4-dichlorophenyl)methoxy]ethyl]-1H-imidazole]
In vivo; mouse, in vivo, iv, male mice, 7 day, read-out: LD50
  LD50 at 168 h: 80 mg/kg
In vivo; p.o., male mice, 7 day
  LD12.5: > 500 mg/kg
C. albicans [1]; i.v.
  No. of CFU/g kidney at 48 h: 9 × 10^2 CFU/g kidney
C. albicans [1]; p.o.
  No. of CFU/g kidney at 48 h: 1.4 × 10^3 CFU/g kidney

## O=C1C(CC[S+]([O-])c2ccccc2)C(=O)N(c2ccccc2)N1c1ccccc1 (stereo not drawn) [Sulfinpyrazone]
Platelet aggregation; [8]
  ED50: 4.1 mg/kg

## CCn1cc(C(=O)O)c(=O)c2ccc(C)nc21 [NA, Nalidixic Acid]
Pseudomonas aeruginosa; Pseudomonas aeruginosa
  zone of inhibition at 50 µg/disc: 7 mm
Nocardia asteroides
  zone of inhibition at 50 µg/disc: 0 mm
Streptococcus pyrogenes; Streptococcus
  zone of inhibition at 50 µg/disc: 0 mm
Proteus vulgaris
  zone of inhibition at 50 µg/disc: 25 mm
Staphylococcus aureus
  zone of inhibition at 50 µg/disc: 9 mm
Klebsiella pneumoniac; Klebsiella
  zone of inhibition at 50 µg/disc: 21 mm
Escherichia coli
  zone of inhibition at 50 µg/disc: 18 mm
Nocardia brasiliensis
  zone of inhibition at 50 µg/disc: 7 mm

## Clc1ccc(/C(Cn2ccnc2)=N/Nc2ccccc2Cl)cc1 [HC 501, (Z)-1-(4-chlorophenyl)-2-(1H-imidazol-1-yl)ethanone,2-chlorophenylhydrazone, hydrochloride]
[4]
  IC50: < 780 nM
Platelet aggregation; [8]
  ED50: 0.003 mg/kg

## CC(=O)N1CCN(c2ccc(OCC3COC(Cn4ccnc4)(c4ccc(Cl)cc4Cl)O3)cc2)CC1 (stereo not drawn) [Ketoconazole, cis-1-Acetyl-4-[4-[[2-(2,4-dichlorophenyl)-2-(1H-imidazol-1-yl-methyl)-1,3-dioxolan-4-yl]methoxy]piperazine, reference compound]
[2]; 20 mg/kg p.o., day 5 after infection
  Disease rating (degree of hair loss, erythema, desquamation, Max. = 100): 100
[2]; 20 mg/kg p.o., day 10 after infection
  Disease rating (degree of hair loss, erythema, desquamation, Max. = 100): 63.7
[2]; [5]
  Disease rating (degree of hair loss, erythema, desquamation, Max. = 100): 56.4
[2]; [6]
  Disease rating (degree of hair loss, erythema, desquamation, Max. = 100): 100
Candida albicans; 5 mg/kg
  Recovery of C.albicans (as percentage of control): 51.0 percentage of control
Candida albicans; 20 mg/kg
  Recovery of C.albicans (as percentage of control): 11.7 percentage of control
C. albicans [3]; oral, 10 mg/kg once daily for 3 days
  Clearance of C. albicans from rat vagina (as percentage of control): 99.9 percentage of control
C. albicans [3]; [7]
  Clearance of C. albicans from rat vagina (as percentage of control): 99.9 percentage of control

## OCCN(CCO)c1nc(N2CCCCC2)c2nc(N(CCO)CCO)nc(N3CCCCC3)c2n1 [Dipyridamide, 2,2',2",2"',[(4,8Di-1-piperidinyl-pyrimido]5,4d[pyrimidine2,6-diyl)dinitrlo] tetrakisethanol]
Platelet aggregation; [8]
  ED50: 6.8 mg/kg

## Clc1ccc(/C(Cn2ccnc2)=N/Nc2c(Cl)cccc2Cl)cc1 [HC344, (Z)-1-(4-chlorophenyl)-2-(1H-imidazol-1-yl) ethanone, 2,6-dichlorophenylhydrazone, hydrochloride]
In vivo; mouse, in vivo, ip, male mice, 7 day, read-out: LD50
  LD50 at 168 h: 780 mg/kg
In vivo; p.o., male mice, 7 day
  LD12.5: > 1500 mg/kg
[2]; [5]
  Disease rating (degree of hair loss, erythema, desquamation, Max. = 100): 24.6
[2]; [6]
  Disease rating (degree of hair loss, erythema, desquamation, Max. = 100): 100
